Several values for one entry are separate records, joined by “and”; a condition that tells them apart may be missing. Equal entries are not always repeated. Values belong to the compound of their own block, whether it stands above or below them.
Legend:
[1] = tested on: thromboxane synthase from human platelets; conditions: highest potency among the imidazole derivatives tested; read-out: I50; cited from earlier work
[2] = target: T1, thromboxane synthase (Human Platelet Microsomes) (Homo sapiens, UniProt P24557); test: Thromboxane synthase inhibition, human platelet microsomes; format: biochemical; conditions: enzyme source H = Human Platelet Microsomes; read-out: IC50
T1 construct: Platelets were obtained from 320 ml of whole blood and resuspended in 5.0 ml of Krebs-Hensleit buffer; from tissue; host or cells: human platelets (microsomes, 110,000 g pellet)
T1 sequence (P24557 1-533): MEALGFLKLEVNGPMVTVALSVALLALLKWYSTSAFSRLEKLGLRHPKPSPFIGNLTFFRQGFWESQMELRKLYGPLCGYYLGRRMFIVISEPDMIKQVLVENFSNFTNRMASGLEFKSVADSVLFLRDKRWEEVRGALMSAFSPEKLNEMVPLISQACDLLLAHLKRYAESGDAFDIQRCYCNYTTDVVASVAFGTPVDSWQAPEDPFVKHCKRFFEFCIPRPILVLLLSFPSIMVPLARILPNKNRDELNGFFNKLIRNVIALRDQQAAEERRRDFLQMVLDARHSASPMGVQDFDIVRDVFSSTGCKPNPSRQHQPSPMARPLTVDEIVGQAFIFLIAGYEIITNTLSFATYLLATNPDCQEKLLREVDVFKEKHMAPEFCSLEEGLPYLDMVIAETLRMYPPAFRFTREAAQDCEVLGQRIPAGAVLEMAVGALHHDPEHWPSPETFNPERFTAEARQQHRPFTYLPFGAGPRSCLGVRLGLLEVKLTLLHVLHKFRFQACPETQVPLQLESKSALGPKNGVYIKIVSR
Experimental: (§1) In said assay procedure, microsomes from guinea pig lung or human platelets are added to an endoperoxide intermediate in prostaglandin biosynthesis and the inhibitor in phosphate buffer solution followed by incubation, extraction and determination of the extent of thromboxane synthase inhibition by TLC with radiochromatographic profile analysis.
(§2) Determination of Inhibition of Thromboxane Synthase Activity Isolation of Human Platelet Microsomes
Platelets were obtained from 320 ml of whole blood and resuspended in 5.0 ml of Krebs-Hensleit buffer (CA^+2 free). After three consecutive freeze-thawing cycles, homogenization and centrifugation at 12,000 g for 45 min., the 12,000 supernatant was recentrifuged at 110,000 g for 60 min. The resultant pellet was resuspended in phosphate buffer (0.5 ml, 0.1M, pH 7.5) and stored at -70° until use.
(§3) Low specific activity PGH2 (3.3 μCi/μmole) was obtained from Dr. W. E. M. Lands of the University of Michigan. PGH2 of higher specific activity (16.0 μCi/μmole) was purchased from Ran Biochemicals, Tel-Aviv, Israel.
(§4) The inhibitors tested were prepared as solutions (1-10 mg/ml) in 95% ethanol.
(§5) Assay for Thromboxane Synthase
(§6) To a 12×75 mm tube containing [1-^14 C] PGH2 (2 μg, 0.01 μCi or 0.05 μCi) and inhibitor (1 mM final assay concentration, in 10 μl of ethanol) in 225 μl of phosphate buffer (0.1M, pH 7.5), was added to an aliquot of guinea pig lung microsomes (25 μl, containing 400 μg protein) or an aliquot of human platelet microsomes (25 μl, containing .congruent.[…] protein). The solution was incubated in a 22° water bath for 2 min.; ether (1 ml) and citric acid (25 μMoles) were added, and the tube plunged into an acetone-dry ice bath. The ether extract was transferred to a 1.0 ml Reacti-vial, and the volume reduced under nitrogen to .congruent.50 μl.
(§7) The extract was applied to an I.T.L.C., type SG, glass fiber sheet (Gelman Instrument Co., Ann Arbor, Mich.) and developed in isooctane; methyl ethyl ketone: acetic acid (100:19:1 or 100:9:1) (19). The sheets were air dried and scanned using a Berthold LB 2760 Radiochromatographic Scanner. In certain cases, based on the radiochromatographic profile obtained, the sheets were cut, the appropriate regions placed in scintillation vials, 10 ml of LSC cocktail (Yorktown Research, S. Hackensack, NJ) added, and the relative cpm determined.

[3] = target: T2, thromboxane synthase (Guinea Pig Lung Microsomes) (Cavia porcellus, UniProt H0UT36); test: biochemical; conditions: enzyme source G = Guinea Pig Lung Microsomes; read-out: IC50
T2 construct: The lungs were removed, freed of trachea and the majority of blood removed by rinsing the lungs with buffer; from tissue; host or cells: lungs of male guinea pigs (microsomes, 110,000 g pellet)
Experimental: as §1, with “analysis. […]” for “analysis.”
Isolation of Guinea Pig Lung Microsomes
Four male guinea pigs (.congruent.500 g each) were sacrificed by spinal dislocation. The lungs were removed, freed of trachea and the majority of blood removed by rinsing the lungs with buffer (0.1M phosphate pH 7.5) via the pulmonary artery. The lung tissue (18.3 g total wet wt.), was then minced, suspended in three volumes of buffer and homogenized using, initially, a Brinkmann polytron homogenizer and, finally, a glass-teflon tissue grinder. The homogenate was centrifuged at 12,000 g for 1 hr. and the resultant supernatant recentrifuged at 110,000 g for 1 hr. The 110,000 g pellet was taken up in 10 ml of buffer, divided into 5×2 ml aliquots and stored at -70° until use.
as §3, §4, §5, §6, §7

[4] = tested on: isolated perfused rat pancreas; test: Insulin secretion by isolated perfused rat pancreas; design: key: insulin AUC ratio: 1st glucose pulse / 2nd pulse with compound; conditions: 16.7 mM glucose, control 1.0 ± 0.04 (n = 5)
Experimental: Determination of Insulin-Secretory Activity in the Isolated Perfused Rat Pancreas
Pancreata were obtained from young adult female Charles River rats weighing from 200-300 g. The animals were anaesthesized with sodium pentobarbitol (45 mg/kg), injected intraperitoneally, and the pancreas with its intact vasculature was removed and connected to an extracorporeal perfusion apparatus.
The basic perfusion solution contained: 133 mM NaCl, 4.4 mM KCl, 2.5 mM MgSO4, 2.4 mM Ca gluconate, 1.5 mM KH2 PO4, 29.4 mM NaHCO3, 4% dextran and 0.2% bovine serum albumin and glucose as discussed below. The perfusion flow rate was kept constant at 4 ml/min. After a 15-20 min equilibration period, the experimental protocol was begun. The pancreatic effluent was collected in either one or four-minute fractions.
The perfusion was run in the following sequence:
30 min 16.7 mM glucose-internal control
30 min 16.7 mM glucose and test compound
5 min 20 mM arginine-to check pancreas viability
Test compounds were dissolved in 90% ethanol to a concentration of 25 mM and then diluted in the perfusion buffer to the desired concentration. The perfusion effluent was collected in one or four min fractions-the samples were checked immediately, aliquoted for submission to radioimmunoassay and stored at -20° C. until the time of assay. The radioimmunoassay of insulin was carried out by a back-titration method using a pure rat insulin standard.
To assess the inhibitory activity of the test compounds, an inhibition index was calculated. The inhibition index is derived by comparing the insulin secretion response from treated versus nontreated pancreas preparations. For each preparation, a ratio of insulin secretion was calculated from the area under the insulin secretion curve of the first pulse of 16.7 mM glucose divided by the area under the curve of the second pulse of 16.7 mM glucose containing compound.

TXA2 Synthase = test: TXA2 synthase IC50 as listed in Table I (enzyme source not stated); format: biochemical
Experimental: as §2, §5, §6, §7

obese Zucker rats = test: Antiobesity activity in vivo in obese Zucker rats; design: species or system rat; conditions: 16 to 18 days; for Body Weight Gain: treated minus control
Experimental: Determination of Antiobesity Activity
Thromboxane synthase inhibitors were evaluated for antiobesity activity in vivo. Body weight, food intake and circulating insulin levels were monitored during periods of drug treatment. Analysis of carcass composition was performed at study termination.
Animals, Diets and Drug Administration
Lean and obese male and female Zucker rats bred at Hoffmann-La Roche Inc. (Nutley, NJ) were kept in wire-bottomed individual cages in light (12 hr dark and light cycles beginning at 6 p.m. and 6 a.m., respectively) and temperature-controlled (22°) rooms. All rats were fed chow diet (Ralston Purina Co., St. Louis, MO) ad libitum until one to three weeks before the start of drug treatment, at which time they were trained to consume a high glucose low fat (1% corn oil) diet which is herein referred to as G-70:1% CO. Following the one to three-week training period on G-70:1% CO, the average daily food intake was calculated, and the rats were weighed and divided into groups of four to seven rats each.
The control animals continued to eat the G-70:1% CO diet ad libitum, and the experimental groups were given G-70:1% CO diet containing drug (also fed ad libitum). The amount of drug added to the diet of each experimental group was based on calculations of food consumed per kg body weight using data collected at the end of the training period. […] The period of drug treatment ranged from 16 to 18 days as noted in the legends to the tables and graph. Food intake and body weight were recorded either daily or twice a week throughout the duration of the study. The amount of drug administered was calculated from the food intake per kg body weight for each experimental group. Body weight data are reported as the difference between the body weight gains of control and drug-treated animals. Food intake and insulin data are reported as percent of control.
^a Average duration of treatment was 16 to 18 days.
^b Body weight gain was computed by taking the difference between the
weight gain of treated and control rats.

[5] = tested on: thromboxane synthetase (rabbit platelet microsomes); conditions: result in words; cited from earlier work

T2 sequence (H0UT36 entry or part of it): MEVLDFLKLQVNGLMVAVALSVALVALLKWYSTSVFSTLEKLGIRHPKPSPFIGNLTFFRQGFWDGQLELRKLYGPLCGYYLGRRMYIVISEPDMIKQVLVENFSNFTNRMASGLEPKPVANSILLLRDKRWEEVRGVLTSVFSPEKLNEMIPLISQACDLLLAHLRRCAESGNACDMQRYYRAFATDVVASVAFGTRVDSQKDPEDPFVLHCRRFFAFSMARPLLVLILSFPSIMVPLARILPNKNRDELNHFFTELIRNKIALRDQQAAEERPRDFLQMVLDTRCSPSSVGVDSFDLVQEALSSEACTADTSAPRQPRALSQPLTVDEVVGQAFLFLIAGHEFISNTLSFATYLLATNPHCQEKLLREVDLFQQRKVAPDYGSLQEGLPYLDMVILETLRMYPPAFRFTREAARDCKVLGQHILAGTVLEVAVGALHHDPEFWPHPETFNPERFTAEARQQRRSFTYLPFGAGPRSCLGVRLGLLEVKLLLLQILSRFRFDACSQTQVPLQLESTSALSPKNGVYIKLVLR

IC50 [2]: ~1000 nM
SMILES: CC(C)c1ccccc1-n1ccnc1 [1-[2-(1-methylethyl)phenyl]-1H--imidazole]
IC50 [1]: ~10 nM

IC50 [3]: 10 to 100 µM
IC50 [2]: 10000 to 100000 nM
IC50 (TXA2 Synthase): 10 to 100 µM
SMILES: c1ccc(C(c2ccccc2)(c2ccccc2)n2ccnc2)cc1 [1-(triphenylmethyl)-1H--imidazole, 1-(triphenylmethyl)-1H-imidazole]
Insulin Secretion Inhibition Index ([4]; 10 μM): 2

IC50 [2]: ~1000 nM
IC50 (TXA2 Synthase): 1 µM
SMILES: CC(C)c1[nH]c2ccccc2c1C(=O)c1cccnc1 [[2-(1-methylethyl)-1H-indol-3-yl)]-3-pyridinyl-methanone]
Food Consumption (obese Zucker rats; 94 mg/kg in diet, not marked significant): 89 ± 4 % of control
Body Weight Gain (obese Zucker rats; 94 mg/kg in diet, P ≤ 0.05): -17 g
Insulin Secretion Inhibition Index ([4]; 100 μM): 5

IC50 [3]: 10 to 100 µM
IC50 (TXA2 Synthase): 15 µM
SMILES: S=C(n1ccnc1)n1ccnc1 [1,1'-carbonothioylbis-1H--imidazole, 1,1'-carbonothioylbis-1H-imidazole]
Insulin Secretion Inhibition Index ([4]; 1000 μM): 5

SMILES: CCCCCCCCCn1ccnc1 [1-nonyl-1H--imidazole]
IC50 [1]: ~10 nM

IC50 [2]: ~1000 nM
IC50 (TXA2 Synthase): 1 µM
SMILES: c1ccc2c(Cn3ccnc3)c[nH]c2c1 [3-(1H--imidazol-1-ylmethyl)-1H--indole, 3-(1H-imidazol-1-ylmethyl)-1H-indole]
Food Consumption (obese Zucker rats; 18 mg/kg in diet, P ≤ 0.05): 81 ± 1 % of control
Insulin (obese Zucker rats; 18 mg/kg in diet, P ≤ 0.05): 72 ± 9 % of control
Body Weight Gain (obese Zucker rats; 18 mg/kg in diet, P ≤ 0.05): -24 g
Food Consumption (obese Zucker rats; 55 mg/kg in diet, P ≤ 0.05): 63 ± 4 % of control
Insulin (obese Zucker rats; 55 mg/kg in diet, P ≤ 0.05): 12 ± 2 % of control
Body Weight Gain (obese Zucker rats; 55 mg/kg in diet, P ≤ 0.05): -68 g
Insulin Secretion Inhibition Index ([4]; 10 μM): 1
Insulin Secretion Inhibition Index ([4]; 50 μM): 13
Insulin Secretion Inhibition Index ([4]; 100 μM): 32

SMILES: c1c[nH]cn1 [1H--imidazole, reference compound]
IC50 [3]: > 100 µM and < 1000 µM
Insulin Secretion Inhibition Index ([4]; 100 μM): 2
Insulin Secretion Inhibition Index ([4]; 1000 μM): 3
IC50 (TXA2 Synthase): 600 µM

SMILES: c1ccncc1 [pyridine]
enzymatic formation of TXB2 from PGH2 [5]: inhibition

IC50 [2]: ~10000 nM
IC50 (TXA2 Synthase): 10 µM
SMILES: CC(C)Oc1ccc(-n2ccnc2)cc1 [1-[4-(1-methylethoxy)phenyl]-1H-imidazole]
Food Consumption (obese Zucker rats; 82 mg/kg in diet, P ≤ 0.05): 80 ± 2 % of control
Insulin (obese Zucker rats; 82 mg/kg in diet, not marked significant): 94 ± 21 % of control
Body Weight Gain (obese Zucker rats; 82 mg/kg in diet, P ≤ 0.05): -18 g
Insulin Secretion Inhibition Index ([4]; 100 μM): 4

— patent US4731363A, “Thromboxane synthase inhibitors as insulin lowering agents and antiobesity agents” (priority 1986, dated 1988)
